Source: patent US6524820B1, “Lectins and coding sequences” (University of Georgia Research Foundation, Inc., priority 1997, dated 2003)

Experiments:
recombinant XL35 [1] = experiment: Inhibition of XL35 erythrocyte agglutination activity; assay type: cell-based, Xenopus laevis; settings: 2 M urea
Procedure: The assay was performed essentially as described using trypsinized, glutaraldehyde-fixed rabbit erythrocytes [Barondes and Roberson (1987) Methods Enzymol. 138, 516-20] in TCS buffer (10 mM Tris, pH 7.6, 10 mM CaCl2, 150 mM NaCl). To compare the agglutination properties of both the purified and recombinant lectins, the two lectins were assayed under similar conditions. Because the eluted recombinant lectin was in 8 M urea, a solution of purified non-recombinant lectin was also brought to 8 M with a concentrated urea solution. The agglutination assay was performed using […] of either recombinant or native XL35 lectin in […] TCS and 8 M urea was added to wells of a 96-well microtiter plate. Next, […] of TCS alone or TCS containing 0.4 M EDTA or 1.0 M melibiose or 1.0 M sucrose was added to the wells and mixed with the lectin solution. To this solution, 50 ml of a 1:1 suspension of trypsinized, glutaraldehyde-fixed rabbit erythrocytes in TCS was added and the contents of the wells were mixed by trituration. The final concentration of urea in the wells was 2 M, while that of EDTA was 0.10 M and that of melibiose and sucrose were 0.25 M. Agglutination activity was scored after 1.5 hr. at room temperature using an inverted microscope on low power. After 1.5 hr in TCS plus 2 M urea, the purified oocyte lectin retained about 25-50% of the agglutination activity observed when it was assayed in TCS alone, but the relative abilities of various sugars to inhibit the agglutination reaction were similar in the presence or absence of urea. The recombinant lectin precipitated in the absence of urea; therefore, at least 2 M urea was used in the agglutination assay.

recombinant XL35 [2] = settings: in the presence of Ca++; literature (Clark 1987); cited from earlier work

Row | Structure (SMILES) | inhibition of recombinant XL35 agglutination activity (recombinant XL35 [1]; inhibitor at 0.1 M) | inhibition of recombinant XL35 agglutination activity (recombinant XL35 [1]; inhibitor at 0.25 M) | inhibition of agglutination of trypsinized rabbit erythrocytes by frog oocyte lectins (recombinant XL35 [2])
1 | O=C(O)CN(CCN(CC(=O)O)CC(=O)O)CC(=O)O [EDTA] | completely inhibited |  | 
2 | OC[C@H]1O[C@H](OCC2O[C@@H](O)[C@H](O)[C@@H](O)[C@@H]2O)[C@H](O)[C@@H](O)[C@H]1O (stereo partly shown) [melibiose] |  | completely inhibited | strongly inhibited
3 | OC[C@H]1O[C@@](CO)(O[C@H]2O[C@H](CO)[C@@H](O)[C@H](O)[C@H]2O)[C@@H](O)[C@@H]1O [sucrose] |  | not | 
